Our source for the Ki, Activity and inhibition values is ChEMBL document CHEMBL1156190, “Virtual screening for the identification of novel nonsteroidal glucocorticoid modulators” (J Med Chem, 2010).

pKi: −log10 of the molar value. Active and inactive are the calls of the source. No cut-off for these calls is given here.

One experiment deals with T1, Glucocorticoid receptor (Homo sapiens, UniProt P04150).
T1 sequence (P04150 whole entry): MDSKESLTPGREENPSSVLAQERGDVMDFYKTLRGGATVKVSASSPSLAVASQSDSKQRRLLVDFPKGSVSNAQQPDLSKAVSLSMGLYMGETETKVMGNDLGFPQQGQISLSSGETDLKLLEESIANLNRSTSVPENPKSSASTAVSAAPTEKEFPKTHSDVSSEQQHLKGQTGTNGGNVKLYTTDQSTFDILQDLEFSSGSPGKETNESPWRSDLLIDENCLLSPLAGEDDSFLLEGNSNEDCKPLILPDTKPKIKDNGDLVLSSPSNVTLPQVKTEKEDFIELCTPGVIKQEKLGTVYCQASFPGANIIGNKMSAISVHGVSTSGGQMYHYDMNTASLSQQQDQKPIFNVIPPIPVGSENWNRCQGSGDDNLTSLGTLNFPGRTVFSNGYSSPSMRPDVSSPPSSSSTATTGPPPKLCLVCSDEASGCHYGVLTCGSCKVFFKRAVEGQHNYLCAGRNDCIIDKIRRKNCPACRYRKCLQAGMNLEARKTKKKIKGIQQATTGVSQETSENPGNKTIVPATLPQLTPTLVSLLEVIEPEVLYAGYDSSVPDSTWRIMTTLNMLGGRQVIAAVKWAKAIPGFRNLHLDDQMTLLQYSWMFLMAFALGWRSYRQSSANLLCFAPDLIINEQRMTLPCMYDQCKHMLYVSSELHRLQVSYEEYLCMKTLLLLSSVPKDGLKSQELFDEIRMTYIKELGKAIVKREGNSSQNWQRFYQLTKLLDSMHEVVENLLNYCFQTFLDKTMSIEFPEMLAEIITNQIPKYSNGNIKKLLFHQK
Briefly: Displacement of [3H]DEX from human glucocorticoid receptor. (Displacement assays read how much labelled ligand stays bound in the presence of the test substance.)

In experiment [1] the target is T2, Peroxisome proliferator-activated receptor gamma (Homo sapiens) (UniProt P37231).
T2 sequence (whole entry): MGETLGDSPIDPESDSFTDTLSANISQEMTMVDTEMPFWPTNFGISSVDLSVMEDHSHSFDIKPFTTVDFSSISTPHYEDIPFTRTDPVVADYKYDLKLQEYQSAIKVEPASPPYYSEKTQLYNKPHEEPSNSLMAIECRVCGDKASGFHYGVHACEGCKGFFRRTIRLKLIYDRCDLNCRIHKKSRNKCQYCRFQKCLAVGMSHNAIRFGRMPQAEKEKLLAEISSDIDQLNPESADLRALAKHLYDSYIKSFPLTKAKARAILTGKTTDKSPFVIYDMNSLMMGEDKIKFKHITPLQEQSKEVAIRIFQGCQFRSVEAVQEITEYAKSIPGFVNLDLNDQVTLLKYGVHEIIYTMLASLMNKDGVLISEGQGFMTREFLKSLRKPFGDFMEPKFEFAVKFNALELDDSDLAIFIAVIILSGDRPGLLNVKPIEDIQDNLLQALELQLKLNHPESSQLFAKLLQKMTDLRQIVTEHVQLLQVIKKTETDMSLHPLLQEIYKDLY
Briefly: Displacement of fluoromone from human recombinant PPARgamma assessed as reduction of maximum polarization by fluorescence polarization assay.

For experiment [2], the target named is T3, Estrogen receptor (Homo sapiens) (UniProt P03372).
T3 sequence (whole entry): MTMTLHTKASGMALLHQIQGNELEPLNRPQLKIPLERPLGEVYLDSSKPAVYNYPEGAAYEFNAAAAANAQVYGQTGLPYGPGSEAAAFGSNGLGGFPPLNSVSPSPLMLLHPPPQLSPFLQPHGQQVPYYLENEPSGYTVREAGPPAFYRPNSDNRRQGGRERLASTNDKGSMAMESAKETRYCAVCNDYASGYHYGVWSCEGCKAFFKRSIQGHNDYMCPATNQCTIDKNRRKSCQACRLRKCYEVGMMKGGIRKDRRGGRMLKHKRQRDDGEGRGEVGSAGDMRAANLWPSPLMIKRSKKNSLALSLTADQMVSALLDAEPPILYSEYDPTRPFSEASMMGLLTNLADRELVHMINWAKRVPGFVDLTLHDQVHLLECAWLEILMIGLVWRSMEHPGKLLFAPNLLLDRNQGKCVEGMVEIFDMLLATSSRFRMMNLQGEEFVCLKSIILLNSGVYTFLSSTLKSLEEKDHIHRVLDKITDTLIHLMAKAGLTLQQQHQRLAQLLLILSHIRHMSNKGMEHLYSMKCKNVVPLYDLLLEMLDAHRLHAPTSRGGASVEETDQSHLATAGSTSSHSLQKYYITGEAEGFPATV
Briefly: Displacement of fluoromone from human recombinant ERalpha assessed as reduction of maximum polarization by fluorescence polarization assay. In general terms: Polarisation of emitted light reports the rotation of a fluorescent probe.

Experiment [3] addresses T4, Glucocorticoid receptor (Homo sapiens) (UniProt P04150).
T4 sequence (whole entry): T1 sequence (P04150 whole entry)
Briefly: Displacement of fluoromone from human glucocorticoid receptor LBD at 10 uM assessed as reduction of maximum polarization by fluorescence polarization assay relative to control. The arrangement: scale not given: the % may be the effect or the level left.

In experiment [4] the target is T4, Glucocorticoid receptor (Homo sapiens). Briefly: Transrepression activity at glucocorticoid receptor in human A549 cells assessed as inhibition of IL-1-alpha-induced IL6 expression at 10 uM after 24 hrs by ELISA. The class given is cell-based. A general note: An ELISA detects its analyte on a solid surface through an enzyme-linked reagent.
Experiment [5] concerns the target Estrogen receptor beta (Homo sapiens) (UniProt Q92731). Briefly: Displacement of fluoromone from human recombinant ERbeta assessed as reduction of maximum polarization by fluorescence polarization assay.

Chain of Estrogen receptor beta (Homo sapiens) (Q92731 whole entry): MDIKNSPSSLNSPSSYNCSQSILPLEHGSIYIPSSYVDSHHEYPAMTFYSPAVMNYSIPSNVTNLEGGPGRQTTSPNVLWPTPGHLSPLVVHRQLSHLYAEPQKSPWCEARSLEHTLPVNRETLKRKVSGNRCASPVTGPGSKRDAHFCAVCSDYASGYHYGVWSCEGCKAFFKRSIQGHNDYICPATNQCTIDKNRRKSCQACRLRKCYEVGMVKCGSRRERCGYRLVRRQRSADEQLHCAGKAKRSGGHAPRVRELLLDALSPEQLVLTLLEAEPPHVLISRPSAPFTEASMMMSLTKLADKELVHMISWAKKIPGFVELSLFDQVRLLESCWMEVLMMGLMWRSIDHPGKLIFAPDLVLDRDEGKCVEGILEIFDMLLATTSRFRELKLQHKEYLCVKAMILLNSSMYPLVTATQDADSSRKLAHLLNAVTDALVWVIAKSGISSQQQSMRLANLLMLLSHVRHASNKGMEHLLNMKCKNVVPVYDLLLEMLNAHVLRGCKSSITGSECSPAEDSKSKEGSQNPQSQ

The pKi is the Ki on a negative log10 scale, so that one unit is a factor of ten. `COc1ccc2c(c1)-c1ccc3c(c1[C@H](c1ccccc1)O2)C(C)=CC(C)(C)N3` showed a pKi on Glucocorticoid receptor of 7.74.
Still for that read-out and setting: in the case of `C=C1CCC(Br)C(C)(C)[C@@H]1Cc1cc(OC)c(Br)cc1O` (some centres undefined) it was 5.49; in that of `CC#C[C@@]1(O)CC[C@@]2(Cc3ccccc3)c3ccc(C(=O)NCc4ccncc4)cc3CC[C@@H]2C1`, 8.70.
As to `O=C1CC(c2ccccc2)CC2=C1C(c1cc(Cl)ccc1Cl)Nc1ccccc1N2` (centres undefined), the result in experiment [1], in experiment [2] and in experiment [5] was inactive. The Activity in experiment [3] turned out to be 65%. Also, the inhibition entry in experiment [4] is “inactive”.
For `C#Cc1cccc2c1-c1ccc3c(c1[C@H](CC=C)O2)C(C)=CC(C)(C)N3`, the pKi on Glucocorticoid receptor was 8.16.
Regarding `COc1c(Br)cc2ccccc2c1-c1c(OC)c(CO)cc2ccccc12`, in experiment [3], the Activity is 50%.
On to `C=C1C(C)CCC(C)(C)[C@@H]1Cc1cc(OC)c(Br)cc1OC(C)=O` (some centres undefined), for which the pKi on Glucocorticoid receptor is 5.39.
On the same count and under the same terms, in the case of `C=C1CCC(Br)C(C)(C)[C@H]1Cc1cc(OC)c(Br)cc1O` (some centres undefined) it was 5.61; in that of `C=CC[C@@H]1Oc2ccc(OC#N)c(OC)c2-c2ccc3c(c21)C(C)=CC(C)(C)N3`, 7.29; in that of `C#COc1ccc2c(c1OC)-c1ccc3c(c1[C@H](CC=C)O2)C(C)=CC(C)(C)N3`, 8.38.
